From US7557132B2, “Compounds useful as pesticides” (Dow AgroSciences LLC, priority 2002, dated 2009)

melting point: 93 to 95 °C
SMILES: CC(/C(=C/[N+](=O)[O-])Nc1ccccc1)c1ccc(Cl)nc1 (stereo not shown) [Compound 45, N-{(Z)-1-[1-(6-chloro-3-pyridinyl)ethyl]-2-nitroethenyl}aniline]
